Here are results for 15 compounds from US10947213B1 (Merck Patent GmbH, priority 2015, dated 2021).

Structures can show the parent of a compound that is named as a salt. Where only a bound is given, the exact number is not on record here.

For the experiment, the target named is T1, TLR7/NFKb HEK cells (Homo sapiens, UniProt Q9NYK1).
T1 construct: expressed in transfected cells; host or cells: HEK cells (TLR7/NFKb reporter line)
T1 sequence (Q9NYK1 27-1049): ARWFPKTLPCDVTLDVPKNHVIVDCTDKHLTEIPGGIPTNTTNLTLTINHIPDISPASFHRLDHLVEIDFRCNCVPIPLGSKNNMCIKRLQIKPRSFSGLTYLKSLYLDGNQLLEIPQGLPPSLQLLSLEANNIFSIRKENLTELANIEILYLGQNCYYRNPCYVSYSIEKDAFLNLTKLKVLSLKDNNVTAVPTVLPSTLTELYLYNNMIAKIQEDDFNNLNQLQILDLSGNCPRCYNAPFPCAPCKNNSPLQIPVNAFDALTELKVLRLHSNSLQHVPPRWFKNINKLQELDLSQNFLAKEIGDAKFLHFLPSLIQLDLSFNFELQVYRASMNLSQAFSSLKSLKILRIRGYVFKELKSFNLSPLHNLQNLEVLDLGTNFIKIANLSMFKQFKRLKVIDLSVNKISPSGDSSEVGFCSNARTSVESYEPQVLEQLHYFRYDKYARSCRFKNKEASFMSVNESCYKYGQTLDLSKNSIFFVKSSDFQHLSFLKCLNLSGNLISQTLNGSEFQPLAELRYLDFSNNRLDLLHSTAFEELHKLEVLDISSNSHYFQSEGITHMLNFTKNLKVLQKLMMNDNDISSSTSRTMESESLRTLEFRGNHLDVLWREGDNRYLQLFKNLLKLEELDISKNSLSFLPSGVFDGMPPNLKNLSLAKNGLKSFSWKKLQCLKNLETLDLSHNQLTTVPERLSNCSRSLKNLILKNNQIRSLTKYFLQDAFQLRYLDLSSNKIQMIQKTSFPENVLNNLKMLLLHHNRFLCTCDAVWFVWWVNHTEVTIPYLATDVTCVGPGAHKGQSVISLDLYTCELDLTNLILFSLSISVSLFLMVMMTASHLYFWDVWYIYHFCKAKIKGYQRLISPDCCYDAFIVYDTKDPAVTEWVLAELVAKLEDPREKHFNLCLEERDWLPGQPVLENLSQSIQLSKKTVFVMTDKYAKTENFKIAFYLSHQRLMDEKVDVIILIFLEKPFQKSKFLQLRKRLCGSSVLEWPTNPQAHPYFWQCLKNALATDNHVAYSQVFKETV
The experiment is described as follows: HEK Cell Assay (TLR7/NFKb reporter, Steady-Glo luciferase readout). The format is cell-based. The following applies: 30 min compound preincubation, then R*48 agonist for 5 hours, read-out: Potency. The method, then:
Example 142: HEK Cell Assay
Into 384 CulturePlates (Corning 3707) was placed 5000 c/w of TLR7/NFKb HEK cells in 30 uL DMEM without Phenil red (gibco #31053) and 10% i.a. FCS and 2 mM L-ZGLutamin. The cells were incubated for 24 h at 37° C., 10% carbon dioxide and 90% relative humidity. 3 uL of controls, standards, and compounds were dispensed into wells, incubated for 30 min then 3 uL of R*48 agonist in 20 mM Hepes was added. After incubation for 5 hours, they were allowed to stand at room temperature for 15 min. To this was added 10 uL of Steady-Glo substrate reagent and shake assay plate for 5 min at 1500 rpm. The assay plate was allowed to sit for 30 min at room temperature and then the plate was read on EnVision.
For `CC(C)[C@@H](O)C(=O)N[C@@H]1C[C@H](C)CN(c2ccc(C#N)c3nccnc23)C1` [Compound 21, (R)—N-((3R,5S)-1-(8-cyanoquinoxalin-5-yl)-5-methylpiperidin-3-yl)-2-hydroxy-3-methylbutanamide], the IC50 is under 1000 nM. For `CC1(C)C[C@@H](NC(=O)CC(F)(F)F)CN(c2ccc(C#N)c3nccnc23)C1` [Compound 220, N-[(3R)-1-(8-cyanoquinoxalin-5-yl)-5,5-dimethylpiperidin-3-yl]-3,3,3-trifluoropropanamide] the value was 1000 to 10000 nM; for `C[C@H]1C[C@@H](NC(=O)CN(C)C)CN(c2ccnc3nccnc23)C1` [Compound 33, 2-(dimethylamino)-N-((3R,5S)-5-methyl-1-(pyrido[2,3-b]pyrazin-8-yl)piperidin-3-yl)acetamide], 1000 to 10000 nM. As for `C[C@H]1C[C@@H](NC(=O)Cc2cn(C)cn2)CN(c2ccnc3nccnc23)C1` [Compound 133, N-[(3R,5S)-5-methyl-1-[pyrido[2,3-b]pyrazin-8-yl]piperidin-3-yl]-2-(1-methyl-1H-imidazol-4-yl)acetamide], the figure is over 10000 nM; as for `CN[C@@H]1C[C@H](C)CN(c2ccc(C(F)(F)F)c3ncccc23)C1` [Compound 451, Methyl-[(3R,5S)-5-methyl-1-(8-trifluoromethyl-quinolin-5-yl)-piperidin-3-yl]-amine hydrochloride], under 1000 nM; as for `CC(C)[C@H](O)C(=O)N[C@@H]1C[C@H](C)CN(c2ccc(C#N)c3nccnc23)C1` [Compound 20, (S)—N-((3R,5S)-1-(8-cyanoquinoxalin-5-yl)-5-methylpiperidin-3-yl)-2-hydroxy-3-methylbutanamide], under 1000 nM.

`C[C@H]1C[C@@H](NC(=O)[C@H](C)N(C)C)CN(c2ccc(C(F)(F)F)c3ncccc23)C1` [Compound 526, (S)-2-Dimethylamino-N-[(3R,5S)-5-methyl-1-(8-trifluoromethyl-quinolin-5-yl)-piperidin-3-yl]-propionamide]: the IC50 is under 1000 nM. In the case of `C[C@H]1C[C@@H](NC(=O)CC2CNC2)CN(c2ccc(C(F)(F)F)c3ncccc23)C1` [Compound 288, 2-(azetidin-3-yl)-N-[(3R,5S)-5-methyl-1-[8-(trifluoromethyl)quinolin-5-yl]piperidin-3-yl]acetamide], the IC50 was under 1000 nM. Turning to `CN1CCC(CC(=O)N[C@H]2C[C@@H](C(F)(F)F)CN(c3ccc(C#N)c4ncccc34)C2)CC1` (relative stereo) [Compound 478, cis-N-[1-(8-Cyano-quinolin-5-yl)-5-trifluoromethyl-piperidin-3-yl]-2-(1-methyl-piperidin-4-yl)-acetamide], the IC50 is under 1000 nM. With `C[C@H]1C[C@@H](NC(=O)C(N)C(F)(F)F)CN(c2c(F)cc(C#N)c3nccnc23)C1` (single isomer, unassigned) [Compound 346], the IC50 was over 10000 nM. Regarding `CCN(C)CCNC(=O)C1CCN(c2ccc(C#N)c3ncccc23)CC1` [Compound 416, 1-(8-Cyano-quinolin-5-yl)-piperidine-4-carboxylic Acid [2-(ethyl-methyl-amino)-ethyl]-amide], the IC50 was under 1000 nM.

For `C[C@@H]1CN(c2ccnc3nccnc23)C[C@H](C)O1` [Compound 43, (2S,6R)-2,6-dimethyl-4-(pyrido[2,3-b]pyrazin-8-yl)morpholine], the IC50 was over 10000 nM.

For `C[C@H]1C[C@@H](NC(=O)CN2CCOCC2)CN(c2ccnc3nccnc23)C1` [Compound 110, N-[(3R,5S)-5-methyl-1-[pyrido[2,3-b]pyrazin-8-yl]piperidin-3-yl]-2-(morpholin-4-yl)acetamide], the IC50 is over 10000 nM. For `C[C@H]1C[C@@H](NC(=O)CC(O)C(C)(C)C)CN(c2ccc(C#N)c3nccnc23)C1` (single isomer, unassigned) [Compound 146] the value was under 1000 nM. For `C[C@H]1C[C@@H](NC(=O)C2(N)CC2)CN(c2ccc(C#N)c3nccnc23)C1` [Compound 31, 1-amino-N-((3R,5S)-1-(8-cyanoquinoxalin-5-yl)-5-methylpiperidin-3-yl)cyclopropanecarboxamide hydrochloride], the IC50 was 1000 to 10000 nM.
